# From patent US20230149364A1, “METHODS OF TREATING VIRAL INFECTIONS” (EAGLE PHARMACEUTICALS, INC., priority 2020, published 2023)
# Where “and” joins values, the source holds several entries; their conditions need not be identical. Equal entries are not always repeated. Where two headings read alike, the source gives them in different places.
# Assays:
# SARS-CoV-2 = assay: Virus neutralization (VN) assay, scoring of SARS-CoV-2 cytopathic effects (CPE) in Vero E6 cells; type: cell-based
smiles,measurement,setting,value
O=C1CN(/N=C/c2ccc(-c3ccc([N+](=O)[O-])cc3)o2)C(O)=N1 [dantrolene],CPE,SARS-CoV-2,no CPE was observed
same,Day 2 Read (CPE),SARS-CoV-2,3/3 wells had No CPE and 3/3 walls n34 > 90% CPE
same,Day 4 Read (CPE),SARS-CoV-2,3/3 wells had No CPE and 2/3 wells had > J0% CPE and 1/3 wells had > 90% CPE and 3/3 wells had > 90% CPE
same,Day 6 Read (CPE),SARS-CoV-2,3/3 wells had No CPE and 2/3 wells had > 90% CPE and 1/3 wells had > 90% CPE and 3/3 wells had > 90% CPE
same,Day 2 Read (CPE),"SARS-CoV-2; 50 μM dantrolene, Day 2",3/3 wells had sparse
same,Day 4 Read (CPE),"SARS-CoV-2; 50 μM dantrolene, Day 4",3/3 wells had sparse
same,Day 6 Read (CPE),"SARS-CoV-2; 50 μM dantrolene, Day 6, cell wraps on: 'confluency but greater than Day 4'",3/3 wells had sparse
same,cytopathic effects (virus growth),"SARS-CoV-2; 20 and 40 μM dantrolene, all timepoints",No cytopathic effects
same,MIC,"SARS-CoV-2; Severe acute respiratory syndrome coronavirus 2, 144 h, SARS-CoV-2 in Vero E6 cells, no CPE across all time points (6 days), read-out: minimum inhibitory concentration",20 µM
same,anti-viral activity,SARS-CoV-2; lower concentrations of 10 and 5 μM,also showed anti-viral activity
same,cell growth at Day 6,"Vero E6 cells; 50 μM dilution, Day 6 post-infection, decreased compared to lower dilutions",rebound cell growth
same,cytopathic effects at highest concentrations,"Vero E6 cells; 50 and 100 μM, Days 2 and 4, both infected cells and uninfected controls",showed cytopathic effects
same,Cytotoxic effects,Vero E6 cells; African green monkey,Cytotoxic effects were only observed at the 2 highest dantrolene concentrations
same,cell viability of uninfected Vero E6 cells,"Vero E6 cells; lower dilutions (<50 μM dantrolene), uninfected",good cell viability
